Entries after “also recorded” stand apart in the source; their conditions may differ.
Legend:
pancreatic trypsin = pancreatic trypsin (Sus scrofa, UniProt P00761); test: Trypsin inhibitory assay; assay type: biochemical; conditions: recombinantly produced SFTI-1
[1] = NMR characterization in solution; assay type: physicochemical; conditions: in-cell produced SFTI-1, approximately 0.2 mM, 80 mM potassium phosphate pH 6.5, 90% H2O/10% 2H2O, 298 K
[2] = tested on: trypsin (trypsin-sepharose beads); conditions: incubated with trypsin; ref [34]; cited from earlier work
[3] = ref [10], [12]; cited from earlier work
mammalian cells = conditions: ref [13]; cited from earlier work
cellular membranes = conditions: ref [13]; cited from earlier work

pancreatic trypsin, sequence (P00761 9-231): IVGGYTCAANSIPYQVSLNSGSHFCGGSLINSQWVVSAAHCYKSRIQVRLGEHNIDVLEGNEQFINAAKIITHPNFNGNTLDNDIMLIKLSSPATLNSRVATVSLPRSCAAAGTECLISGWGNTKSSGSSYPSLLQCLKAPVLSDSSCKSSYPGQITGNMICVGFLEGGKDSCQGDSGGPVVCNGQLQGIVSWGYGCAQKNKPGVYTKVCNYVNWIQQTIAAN

CC[C@H](C)[C@@H]1NC(=O)[C@@H]2CCCN2C(=O)[C@@H]2CCCN2C(=O)[C@H]([C@@H](C)CC)NC(=O)[C@H](CO)NC(=O)[C@H](CCCCN)NC(=O)[C@H]([C@@H](C)O)NC(=O)[C@@H]2CSSC[C@H](NC1=O)C(=O)N[C@@H](Cc1ccccc1)C(=O)N1CCC[C@H]1C(=O)N[C@@H](CC(=O)O)C(=O)NCC(=O)N[C@@H](CCCNC(=N)N)C(=O)N2 [SFTI-1, sunflower trypsin inhibitor 1]
inhibition of trypsin (pancreatic trypsin): actively inhibit trypsin; also recorded: fully active | aggregation state in solution [1]: monodispersed | equilibrium between cyclic and linear forms with trypsin [2]: reach equilibrium between the cyclic and the linear forms when incubated with trypsin | stability to thermal or enzymatic degradation [3]: exceptional stability to thermal or enzymatic degradation | toxicity to mammalian cells (mammalian cells): non-toxic to mammalian cells | crossing of cellular membranes (cellular membranes): able to cross cellular membranes
